Test results as given in PMC11046985 (Neuro-Oncology Advances, 2024).

Tests used:
[1] = design: species or system human; conditions: in vivo
Excerpt: The opening of a new cohort followed a standard 3 + 3 dose-escalation design and was guided by assessment of all grade toxicities and trends in adverse events seen in subsequent dosing cycles. […] Safety and clinical data were reviewed through day 28 prior to the opening of each cohort level. DLT was defined as any possible drug-related, clinically relevant, grade 3 or 4 non-hematologic toxicity (except alopecia or unmedicated nausea/vomiting), grade 3 nausea, vomiting, or diarrhea of any duration lasting > 24 hours despite standard prophylaxis and/or treatment, grade 4 diarrhea and vomiting of any duration, grade 3 febrile neutropenia (defined as ANC […] with a single temperature of > 38.3° C or a sustained temperature of ≥ 38.3° C for more than 1 hour), grade 4 febrile neutropenia of any duration, grade 4 neutropenia lasting > 7 days (defined as a neutrophil count of < 500/mm^3), grade 4 thrombocytopenia or thrombocytopenia with clinically significant bleeding, grade 4 anemia of any duration, and any clinically significant toxicity that precluded administration of the next scheduled dose beyond 14 days, or dose reduction for any reason. The maximum tolerated dose (MTD) was defined as the highest dose tested in which fewer than 33% of patients experienced a DLT. Review of study data led to expansion of dose cohort 3 while dose cohort 4 was evaluated. Dose cohort 4 was also expanded in the absence of DLTs. The recommended phase II dose was defined as a dose equal to or below the MTD and accounted for any cumulative or delayed toxicity beyond the DLT observation period.
Safety evaluations of hematology and chemistry were conducted weekly on days 1, 8, and 15 in cycles 1 and 2 and every 2 weeks thereafter. Physical examination, vital signs collection, performance status assessment, neurological exam, and coagulation level occurred at the start of every cycle. An ECG and chest X-ray were performed at baseline prior to starting treatment. Toxicities were assessed using NCI CTCAE version 4.03.

[2] = system: U87EGFRvIII human glioblastoma cells; conditions: cited from earlier work

CN(C)C/C=C/C(=O)Nc1cc2c(Nc3ccc(F)c(Cl)c3)ncnc2cc1O[C@H]1CCOC1 [Afatinib]
5: Mucositis oral: No. of patients with treatment-related AE ([1]; human, po)
280 mg: Recommended phase II dose ([1]; human, po)
no dose-limiting toxicities: Dose-limiting toxicities [1]
8.3%: Confusion: % of patients with treatment-related AE ([1]; human) | Fever: % of patients with treatment-related AE ([1]; human)
9: Nausea: No. of patients with treatment-related AE ([1]; human) | Rash acneiform: No. of patients with treatment-related AE ([1]; human) | Vomiting: No. of patients with treatment-related AE ([1]; human)
37.5%: Nausea: % of patients with treatment-related AE ([1]; human) | Rash acneiform: % of patients with treatment-related AE ([1]; human) | Vomiting: % of patients with treatment-related AE ([1]; human)
12.5%: Constipation: % of patients with treatment-related AE ([1]; human)
4: Edema limbs: No. of patients with treatment-related AE ([1]; human) | Pruritus: No. of patients with treatment-related AE ([1]; human)
75%: Diarrhea: % of patients with treatment-related AE ([1]; human)
16.7%: Edema limbs: % of patients with treatment-related AE ([1]; human) | Pruritus: % of patients with treatment-related AE ([1]; human)
3: Constipation: No. of patients with treatment-related AE ([1]; human)
1: Acute kidney injury: No. of patients with treatment-related AE ([1]; human) | Amnesia: No. of patients with treatment-related AE ([1]; human) | Bilateral blepharitis: No. of patients with treatment-related AE ([1]; human) | Bilateral intermittent leg cramps: No. of patients with treatment-related AE ([1]; human) | Blurred vision: No. of patients with treatment-related AE ([1]; human) | Candida Intertrigo: No. of patients with treatment-related AE ([1]; human) | DVT: No. of patients with treatment-related AE ([1]; human) | Dysgeusia: No. of patients with treatment-related AE ([1]; human) | Dyspepsia: No. of patients with treatment-related AE ([1]; human) | Dyspnea: No. of patients with treatment-related AE ([1]; human) | GERD: No. of patients with treatment-related AE ([1]; human) | Gait disturbance: No. of patients with treatment-related AE ([1]; human) | Gastroenteritis: No. of patients with treatment-related AE ([1]; human) | Headache: No. of patients with treatment-related AE ([1]; human) | Hypokalemia: No. of patients with treatment-related AE ([1]; human) | Ingrown nail: No. of patients with treatment-related AE ([1]; human) | Insomnia: No. of patients with treatment-related AE ([1]; human) | Memory impairment: No. of patients with treatment-related AE ([1]; human) | Metabolic acidosis: No. of patients with treatment-related AE ([1]; human) | Metabolic encephalopathy: No. of patients with treatment-related AE ([1]; human) | Palmar-Plantar Erythrodysesthesia: No. of patients with treatment-related AE ([1]; human) | Paresthesia (lower extremities): No. of patients with treatment-related AE ([1]; human) | Skin atrophy: No. of patients with treatment-related AE ([1]; human) | Skin ulceration: No. of patients with treatment-related AE ([1]; human) | Thrombocytopenia: No. of patients with treatment-related AE ([1]; human) | Thrush (oral): No. of patients with treatment-related AE ([1]; human, po)
20.8%: Rash maculo-papular: % of patients with treatment-related AE ([1]; human) | Mucositis oral: % of patients with treatment-related AE ([1]; human, po)
~1000 nM: Inhibitory concentration of 25% (IC25) [2]
2: Confusion: No. of patients with treatment-related AE ([1]; human) | Fever: No. of patients with treatment-related AE ([1]; human)
25%: Anorexia: % of patients with treatment-related AE ([1]; human) | Fatigue: % of patients with treatment-related AE ([1]; human) | Rash: % of patients with treatment-related AE ([1]; human)
4.2%: Acute kidney injury: % of patients with treatment-related AE ([1]; human) | Amnesia: % of patients with treatment-related AE ([1]; human) | Bilateral blepharitis: % of patients with treatment-related AE ([1]; human) | Bilateral intermittent leg cramps: % of patients with treatment-related AE ([1]; human) | Blurred vision: % of patients with treatment-related AE ([1]; human) | Candida Intertrigo: % of patients with treatment-related AE ([1]; human) | DVT: % of patients with treatment-related AE ([1]; human) | Dysgeusia: % of patients with treatment-related AE ([1]; human) | Dyspepsia: % of patients with treatment-related AE ([1]; human) | Dyspnea: % of patients with treatment-related AE ([1]; human) | GERD: % of patients with treatment-related AE ([1]; human) | Gait disturbance: % of patients with treatment-related AE ([1]; human) | Gastroenteritis: % of patients with treatment-related AE ([1]; human) | Headache: % of patients with treatment-related AE ([1]; human) | Hypokalemia: % of patients with treatment-related AE ([1]; human) | Ingrown nail: % of patients with treatment-related AE ([1]; human) | Insomnia: % of patients with treatment-related AE ([1]; human) | Memory impairment: % of patients with treatment-related AE ([1]; human) | Metabolic acidosis: % of patients with treatment-related AE ([1]; human) | Metabolic encephalopathy: % of patients with treatment-related AE ([1]; human) | Palmar-Plantar Erythrodysesthesia: % of patients with treatment-related AE ([1]; human) | Paresthesia (lower extremities): % of patients with treatment-related AE ([1]; human) | Skin atrophy: % of patients with treatment-related AE ([1]; human) | Skin ulceration: % of patients with treatment-related AE ([1]; human) | Thrombocytopenia: % of patients with treatment-related AE ([1]; human) | Thrush (oral): % of patients with treatment-related AE ([1]; human, po)
18: Diarrhea: No. of patients with treatment-related AE ([1]; human)
6: Anorexia: No. of patients with treatment-related AE ([1]; human) | Fatigue: No. of patients with treatment-related AE ([1]; human) | Rash maculo-papular: No. of patients with treatment-related AE ([1]; human) | Rash: No. of patients with treatment-related AE ([1]; human)
